Key:
[1] = species: Mus musculus; experiment: Effective dose for Antinociceptive activity was determined in mice using Tail -Flick Assay: The symbol > signifies that no effect was produced at that dose; format: functional
[2] = target: Neuronal nicotinic acetylcholine receptor; experiment: Binding affinity against Nicotinic acetylcholine receptor using [3H](-)-nicotine radioligand; format: protein-complex assay
[3] = species: Rattus norvegicus; experiment: Effective dose for Antinociceptive activity was determined in rat using drug discrimination assay: The symbol > signifies that no effect was produced at that dose; format: functional
[4] = tested on: Mus musculus; experiment: Effective dose for Antinociceptive activity expressed as Spontaneous activity was determined in mice antagonized by 1 mg/Kg of Mecamylamine: The symbol > signifies that no effect was produced at that dose; format: functional
[5] = species: Mus musculus; experiment: Effective dose for Antinociceptive activity was determined in mice using Tail -Flick Assay; format: functional
[6] = tested on: Mus musculus; experiment: Effective dose for Antinociceptive activity expressed as Spontaneous activity was determined in mice antagonized by 1 mg/Kg of Mecamylamine.; format: functional
[7] = species: Rattus norvegicus; experiment: Effective dose for Antinociceptive activity was determined in rat using drug discrimination assay; format: functional
[8] = tested on: Mus musculus; experiment: Compound was tested to antagonize the antinociceptive actions of 2.5 mg/kg of (-)nicotine as measured in the tail-flick assay in mice; format: functional
[9] = Mus musculus, Tail, read-out: ED50
[10] = Rattus norvegicus, read-out: ED50

Compound `CCCc1ccc(C2CCCN2C)cn1` (racemic) has an ED50 [1] greater than 70 µmol/kg, a Ki [2] of 0.025 µM and an ED50 [3] greater than 20 µM/kg.
`CCCCCc1ccc(C2CCCN2C)cn1` (racemic) was tested, and the ED50 [1] was greater than 50 µmol/kg, the ED50 [4] was greater than 50 µmol/kg and the Ki [2] was 0.072 µM.
For `Cc1ccc(C2CCCN2C)cn1` (racemic), the ED50 [5, 9] was 3.5 µmol/kg, the ED50 ([6]; Mus musculus, read-out: ED50) was 1 µmol/kg and the Ki [2] was 0.0018 µM. The ED50 [7, 10] was 0.4 µmol/kg.
`CN1CCC[C@H]1c1cccnc1` (racemic) [NICOTINE] was tested, and the ED50 [5, 9] was 9.9 µmol/kg, the ED50 ([6]; Mus musculus, read-out: ED50) was 4.9 µmol/kg and the ED50 [7, 10] was 0.6 µmol/kg.
Work on `CCc1ccc(C2CCCN2C)cn1` (single isomer, unassigned; (-)) yielded an ED50 [5, 9] of 2.1 µmol/kg, an ED50 ([6]; Mus musculus, read-out: ED50) of 1.4 µmol/kg and a Ki [2] of 0.0056 µM. It also gave an ED50 [7, 10] of 1.1 µmol/kg.
With `CCCc1ccc(C2CCCN2C)cn1` (single isomer, unassigned; (-)) the AD50 [8] was 4.9 µM/kg, the ED50 [4] was greater than 35 µmol/kg and the Ki [2] was 0.022 µM. For the same compound, the ED50 [3] was greater than 50 µM/kg.
Compound `CCCCc1ccc(C2CCCN2C)cn1` (single isomer, unassigned; (-)) has an AD50 [8] of 9.2 µM/kg, an ED50 [1] greater than 50 µmol/kg and a Ki [2] of 0.021 µM.
Compound `CN1CCC[C@H]1c1cccnc1` [NICOTINE] has an ED50 [5] of 7.4 µM/kg, an ED50 [6] of 3.1 µM/kg and an ED50 [7] of 0.6 µM/kg.

Source: ChEMBL document CHEMBL1134921 (Bioorg Med Chem Lett, 2002)
